These molecules were tested against HR-N and HR-C regions of the SARS-CoV S glycoprotein (Severe acute respiratory syndrome coronavirus, UniProt P59594).
Type: binding, SARS coronavirus (Urbani strain)

Compound | interaction with HR-C1 (in words) | induction of ellipticity at 222 nm with HR-C1
CC[C@H](C)[C@H](NC(=O)CNC(=O)[C@H](CC(N)=O)NC(=O)[C@H](Cc1ccccc1)NC(C)=O)C(=O)NCC(=O)N[C@H](C(=O)N[C@H](C(=O)N[C@@H](CCC(N)=O)C(=O)N[C@@H](CC(N)=O)C(=O)N[C@H](C(=O)N[C@@H](CC(C)C)C(=O)N[C@@H](Cc1ccc(O)cc1)C(=O)N[C@@H](CCC(=O)O)C(=O)N[C@@H](CC(N)=O)C(=O)N[C@@H](CCC(N)=O)C(=O)N[C@@H](CCCCN)C(=O)N[C@@H](CCC(N)=O)C(=O)N[C@H](C(=O)N[C@@H](C)C(=O)N[C@@H](CC(N)=O)C(=O)N[C@@H](CCC(N)=O)C(=O)N[C@@H](Cc1ccccc1)C(=O)N[C@@H](CC(N)=O)C(=O)N[C@@H](CCCCN)C(=O)N[C@@H](C)C(=O)N[C@H](C(=O)N[C@@H](CO)C(=O)N[C@@H](CCC(N)=O)C(=O)N[C@H](C(=O)N[C@@H](CCC(N)=O)C(=O)N[C@@H](CCC(=O)O)C(=O)N[C@@H](CO)C(=O)N[C@@H](CC(C)C)C(=O)N[C@H](C(=O)N[C@H](C(N)=O)[C@@H](C)O)[C@@H](C)O)[C@@H](C)CC)[C@@H](C)CC)[C@@H](C)CC)C(C)C)[C@@H](C)O)C(C)C [HR-N6] | No interactions | –
CC[C@H](C)[C@H](NC(C)=O)C(=O)N[C@@H](CCC(N)=O)C(=O)N[C@@H](CCC(=O)O)C(=O)N[C@@H](CO)C(=O)N[C@@H](CC(C)C)C(=O)N[C@H](C(=O)N[C@H](C(=O)N[C@H](C(=O)N[C@@H](CO)C(=O)N[C@H](C(=O)N[C@@H](C)C(=O)N[C@@H](CC(C)C)C(=O)NCC(=O)N[C@@H](CCCCN)C(=O)N[C@@H](CC(C)C)C(=O)N[C@@H](CCC(N)=O)C(=O)N[C@@H](CC(=O)O)C(=O)N[C@H](C(=O)N[C@H](C(=O)N[C@@H](CC(N)=O)C(=O)N[C@@H](CCC(N)=O)C(=O)N[C@@H](CC(N)=O)C(=O)N[C@@H](C)C(=O)N[C@@H](CCC(N)=O)C(=O)N[C@@H](C)C(=O)N[C@@H](CC(C)C)C(=O)N[C@@H](CC(N)=O)C(=O)N[C@H](C(=O)N[C@@H](CC(C)C)C(=O)N[C@H](C(=O)N[C@@H](CCCCN)C(=O)N[C@@H](CCC(N)=O)C(=O)N[C@@H](CC(C)C)C(=O)N[C@@H](CO)C(=O)N[C@@H](CO)C(N)=O)C(C)C)[C@@H](C)O)C(C)C)C(C)C)[C@@H](C)O)[C@@H](C)O)[C@@H](C)O)[C@@H](C)O [HR-N10] | – | 9,600 degrees
CC[C@H](C)[C@H](NC(=O)[C@H](C)NC(=O)[C@H](CCCCN)NC(=O)[C@H](CC(N)=O)NC(=O)[C@H](Cc1ccccc1)NC(C)=O)C(=O)N[C@@H](CO)C(=O)N[C@@H](CCC(N)=O)C(=O)N[C@H](C(=O)N[C@@H](CCC(N)=O)C(=O)N[C@@H](CCC(=O)O)C(=O)N[C@@H](CO)C(=O)N[C@@H](CC(C)C)C(=O)N[C@H](C(=O)N[C@H](C(=O)N[C@H](C(=O)N[C@@H](CO)C(=O)N[C@H](C(=O)N[C@@H](C)C(=O)N[C@@H](CC(C)C)C(=O)NCC(=O)N[C@@H](CCCCN)C(=O)N[C@@H](CC(C)C)C(=O)N[C@@H](CCC(N)=O)C(=O)N[C@@H](CC(=O)O)C(=O)N[C@H](C(=O)N[C@H](C(=O)N[C@@H](CC(N)=O)C(=O)N[C@@H](CCC(N)=O)C(=O)N[C@@H](CC(N)=O)C(=O)N[C@@H](C)C(=O)N[C@@H](CCC(N)=O)C(=O)N[C@@H](C)C(=O)N[C@@H](CC(C)C)C(=O)N[C@@H](CC(N)=O)C(=O)N[C@H](C(N)=O)[C@@H](C)O)C(C)C)C(C)C)[C@@H](C)O)[C@@H](C)O)[C@@H](C)O)[C@@H](C)O)[C@@H](C)CC [HR-N9] | – | 3,500 degrees
CC[C@H](C)[C@H](NC(=O)[C@H](C)NC(=O)CNC(=O)[C@H](Cc1ccccc1)NC(=O)[C@H](CC(N)=O)NC(=O)[C@H](CO)NC(=O)[C@H](CO)NC(=O)[C@H](CC(C)C)NC(=O)[C@H](CCC(N)=O)NC(=O)[C@H](CCCCN)NC(=O)[C@@H](NC(=O)[C@H](CC(C)C)NC(=O)[C@@H](NC(=O)[C@H](CC(N)=O)NC(=O)[C@H](CC(C)C)NC(=O)[C@H](C)NC(=O)[C@H](CCC(N)=O)NC(=O)[C@H](C)NC(=O)[C@H](CC(N)=O)NC(=O)[C@H](CCC(N)=O)NC(=O)[C@H](CC(N)=O)NC(=O)[C@@H](NC(=O)[C@@H](NC(=O)[C@H](CC(=O)O)NC(=O)[C@H](CCC(N)=O)NC(=O)[C@H](CC(C)C)NC(=O)[C@H](CCCCN)NC(=O)CNC(=O)[C@H](CC(C)C)NC(=O)[C@H](C)NC(=O)[C@@H](NC(=O)[C@H](CO)NC(=O)[C@@H](NC(C)=O)[C@@H](C)O)[C@@H](C)O)C(C)C)C(C)C)[C@@H](C)O)C(C)C)C(=O)N[C@@H](CO)C(=O)N[C@@H](CO)C(N)=O [HR-N11] | absence of any observable interaction | –
CC[C@H](C)[C@H](NC(=O)[C@H](CCC(N)=O)NC(=O)[C@H](CO)NC(=O)[C@@H](NC(=O)[C@H](C)NC(=O)[C@H](CCCCN)NC(=O)[C@H](CC(N)=O)NC(=O)[C@H](Cc1ccccc1)NC(=O)[C@H](CCC(N)=O)NC(=O)[C@H](CC(N)=O)NC(=O)[C@H](C)NC(=O)[C@@H](NC(=O)[C@H](CCC(N)=O)NC(=O)[C@H](CCCCN)NC(=O)[C@H](CCC(N)=O)NC(=O)[C@H](CC(N)=O)NC(=O)[C@H](CCC(=O)O)NC(=O)[C@H](Cc1ccc(O)cc1)NC(=O)[C@H](CC(C)C)NC(=O)[C@@H](NC(=O)[C@H](CC(N)=O)NC(=O)[C@H](CCC(N)=O)NC(=O)[C@@H](NC(=O)[C@@H](NC(=O)CNC(=O)[C@@H](NC(=O)CNC(=O)[C@H](CC(N)=O)NC(=O)[C@H](Cc1ccccc1)NC(=O)[C@H](CCCNC(=N)N)NC(=O)[C@H](Cc1ccc(O)cc1)NC(=O)[C@H](C)NC(=O)[C@H](CCSC)NC(=O)[C@H](CCC(N)=O)NC(=O)[C@H](CCSC)NC(C)=O)[C@@H](C)CC)C(C)C)[C@@H](C)O)C(C)C)[C@@H](C)CC)[C@@H](C)CC)C(N)=O [HR-N5] | no detectable interaction | –
CC[C@H](C)[C@H](NC(=O)[C@H](C)NC(=O)[C@H](CCCCN)NC(=O)[C@H](CC(N)=O)NC(=O)[C@H](Cc1ccccc1)NC(=O)[C@H](CCC(N)=O)NC(=O)[C@H](CC(N)=O)NC(=O)[C@H](C)NC(=O)[C@@H](NC(=O)[C@H](CCC(N)=O)NC(=O)[C@H](CCCCN)NC(=O)[C@H](CCC(N)=O)NC(C)=O)[C@@H](C)CC)C(=O)N[C@@H](CO)C(=O)N[C@@H](CCC(N)=O)C(=O)N[C@H](C(=O)N[C@@H](CCC(N)=O)C(=O)N[C@@H](CCC(=O)O)C(=O)N[C@@H](CO)C(=O)N[C@@H](CC(C)C)C(=O)N[C@H](C(=O)N[C@H](C(=O)N[C@H](C(=O)N[C@@H](CO)C(=O)N[C@H](C(=O)N[C@@H](C)C(=O)N[C@@H](CC(C)C)C(=O)NCC(=O)N[C@@H](CCCCN)C(=O)N[C@@H](CC(C)C)C(=O)N[C@@H](CCC(N)=O)C(=O)N[C@@H](CC(=O)O)C(=O)N[C@H](C(=O)N[C@H](C(=O)N[C@@H](CC(N)=O)C(=O)N[C@@H](CCC(N)=O)C(N)=O)C(C)C)C(C)C)[C@@H](C)O)[C@@H](C)O)[C@@H](C)O)[C@@H](C)O)[C@@H](C)CC [HR-N8] | No interactions | –
CC[C@H](C)[C@H](NC(=O)[C@H](C)NC(=O)[C@H](CCCCN)NC(=O)[C@H](CC(N)=O)NC(=O)[C@H](Cc1ccccc1)NC(=O)[C@H](CCC(N)=O)NC(=O)[C@H](CC(N)=O)NC(=O)[C@H](C)NC(=O)[C@@H](NC(=O)[C@H](CCC(N)=O)NC(=O)[C@H](CCCCN)NC(=O)[C@H](CCC(N)=O)NC(=O)[C@H](CC(N)=O)NC(=O)[C@H](CCC(=O)O)NC(=O)[C@H](Cc1ccc(O)cc1)NC(=O)[C@H](CC(C)C)NC(=O)[C@@H](NC(=O)[C@H](CC(N)=O)NC(=O)[C@H](CCC(N)=O)NC(C)=O)C(C)C)[C@@H](C)CC)C(=O)N[C@@H](CO)C(=O)N[C@@H](CCC(N)=O)C(=O)N[C@H](C(=O)N[C@@H](CCC(N)=O)C(=O)N[C@@H](CCC(=O)O)C(=O)N[C@@H](CO)C(=O)N[C@@H](CC(C)C)C(=O)N[C@H](C(=O)N[C@H](C(=O)N[C@H](C(=O)N[C@@H](CO)C(=O)N[C@H](C(=O)N[C@@H](C)C(=O)N[C@@H](CC(C)C)C(=O)NCC(=O)N[C@@H](CCCCN)C(N)=O)[C@@H](C)O)[C@@H](C)O)[C@@H](C)O)[C@@H](C)O)[C@@H](C)CC [HR-N7] | No interactions | –

From patent publication US20080027006A1 (priority 2004, published 2008)
